# Source: US12344610B2, “APOL1 inhibitors and methods of use” (Maze Therapeutics, Inc., priority 2022, dated 2025)
# Legend:
# APOL1 G2 = biological target: T1, APOL1 G2 (Homo sapiens, UniProt O14791, DEL388-389); experiment: APOL1-mediated calcium transport (calcium influx) assay, HEK T-REx/GCaMP6f/APOL1 G2 K6.3 cells, FLIPR TETRA; assay type: cell-based; details: prevention of calcium influx; geometric mean of at least 2 assay runs; † = average of a technical replicate from a single assay run
# T1 construct: expressed in transfected cells; host or cells: HEK293 T-REx clonal line stably expressing GCaMP6f (HEK T-REx/GCaMP6f/APOL1 G2 K6.3), doxycycline induced
# T1 sequence (O14791 with tags, fused parts or gaps DEL388-389): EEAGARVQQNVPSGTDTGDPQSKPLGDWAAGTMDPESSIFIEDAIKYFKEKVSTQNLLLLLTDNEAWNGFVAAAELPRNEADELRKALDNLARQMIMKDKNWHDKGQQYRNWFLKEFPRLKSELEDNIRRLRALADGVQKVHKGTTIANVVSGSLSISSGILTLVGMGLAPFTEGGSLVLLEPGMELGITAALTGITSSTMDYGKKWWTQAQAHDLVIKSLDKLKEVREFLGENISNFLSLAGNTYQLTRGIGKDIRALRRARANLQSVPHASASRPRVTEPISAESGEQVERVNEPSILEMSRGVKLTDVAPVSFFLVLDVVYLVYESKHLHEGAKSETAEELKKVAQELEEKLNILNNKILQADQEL
# Procedure, shortened: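 A HEK293 T-REx clone stably expressing GCaMP6f had APOL1 G2 induced with doxycycline (20 ng/mL solution added) for 6 h. Cells were then washed into Ca2+-free Tyrode's buffer (pH 7.4) and preincubated with compounds (duplicate 8-point) for 10 min at room temperature. Ca2+ injection to 5 mM final produced FLIPR GCaMP fluorescence, giving AC50 for influx inhibition (geometric mean, ≥2 runs).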
# [1] = test system: HEK293 cells overexpressing APOL1 G2; experiment: APOL1 G2 HEK293 cell rescue assay (reversal of cell death caused by overexpression of APOL1); assay type: cell-based; details: Homo sapiens, HEK293, HEK293 overexpressing APOL1 G2; geometric mean of at least 2 assay runs; † = single assay run
# Procedure, shortened: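 EC50 is the half-maximal effective concentration for reversing cell death driven by APOL1 G2 overexpression in HEK293 cells. Reported as geometric mean of at least 2 runs on separate days, each run averaging duplicate wells per plate; some values from a single run.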
Compound,AC50 (APOL1 G2) [nM],EC50 [1] [nM]
"CS(=O)(=O)C1(c2ccc(OCCN3CCC4(CC3)C(=O)Nc3ccc(Cl)cc34)cc2)CC2(COC2)C1 [Compound 182, 5-chloro-1′-[2-(4-{6-methanesulfonyl-2-oxaspiro[3.3]heptan-6-yl}phenoxy)ethyl]-1,2-dihydrospiro[indole-3,4′-piperidin]-2-one]",574,99.6
"CS(=O)(=O)C1(c2ccc(OCCN3CCC4(CC3)C(=O)N(CC(F)(F)F)c3ccc(C#N)cc34)cc2)COC1 [Compound 184, 1′-{2-[4-(3-methanesulfonyloxetan-3-yl)phenoxy]ethyl}-2-oxo-1-(2,2,2-trifluoroethyl)-1,2-dihydrospiro[indole-3,4′-piperidine]-5-carbonitrile]",1280,498
"CS(=O)(=O)C1(c2ccc(OCCN3CCC4(CC3)C(=O)N(CC(F)(F)F)c3ccc(Cl)cc34)cc2)COC1 [Compound 185, 5-chloro-1′-{2-[4-(3-methanesulfonyloxetan-3-yl)phenoxy]ethyl}-1-(2,2,2-trifluoroethyl)-1,2-dihydrospiro[indole-3,4′-piperidin]-2-one]",993,113
"CS(=O)(=O)C1(c2ccc(OCCN3CCC4(CC3)C(=O)Nc3ccc(Cl)cc34)cc2)CCOCC1 [Compound 188, 5-chloro-1′-{2-[4-(4-methanesulfonyloxan-4-yl)phenoxy]ethyl}-1,2-dihydrospiro[indole-3,4′-piperidin]-2-one]",513,39.2
"CN1C(=O)C2(CCN(CCOc3cc(F)c(C4(S(C)(=O)=O)COC4)c(F)c3)CC2)c2cc(C#N)ccc21 [Compound 189, 1′-{2-[3,5-difluoro-4-(3-methanesulfonyloxetan-3-yl)phenoxy]ethyl}-1-methyl-2-oxo-1,2-dihydrospiro[indole-3,4′-piperidine]-5-carbonitrile]",349,59.1
"CC(C)(c1ccc(OCCN2CCC3(CC2)C(=O)Nc2ccc(C#N)cc23)cn1)S(C)(=O)=O [Compound 191, 1′-(2-{[6-(2-methanesulfonylpropan-2-yl)pyridin-3-yl]oxy}ethyl)-2-oxo-1,2-dihydrospiro[indole-3,4′-piperidine]-5-carbonitrile]",1170,130
